Laboratory results from US20110053770A1, “SUBSTITUTED AMINOTHIAZOLES AND THEIR USE AS FUNGICIDES” (BAYER CROPSCIENCE AG, priority 2009, published 2011).
Where two headings read alike, the source gives them in different places. Marks after values point to notes of the source that are not given here.

Assay: logP by HPLC on reversed-phase columns (C 18), EEC directive 79/831 Annex V.A8
Type: physicochemical
Conditions: for log P (**): pH 2.7, 0.1% aqueous formic acid and acetonitrile; for chromatographic logP: reversed-phase HPLC column (C 18)
Description: Calibration was carried out using unbranched alkan-2-ones (having from 3 to 16 carbon atoms) with known logP values (the logP values were determined by the retention times using linear interpolation between two successive alkanones).

[1] = LC-MS, neutral range, pH 7.8, 0.001 molar aqueous ammonium bicarbonate and acetonitrile
[2] = acidic range, pH 2.3, 0.1% aqueous phosphoric acid and acetonitrile

SMILES	log P (**) (LC-MS, acidic range)	log P (***) [1]	log P (*) [2]	chromatographic logP (LC-MS, neutral range, pH 7.8, 0.001 molar aqueous ammonium bicarbonate and acetonitrile, read-out: log P (***))	chromatographic logP (acidic range, pH 2.3, 0.1% aqueous phosphoric acid and acetonitrile, read-out: log P (*))
CC(=O)N1CCCCC1=Nc1nc(-c2cc(F)cc(F)c2)cs1 [compound 40, 1-[(2E/Z)-2-{[4-(3,5-difluoro-phenyl)-1,3-thiazol-2-yl]imino}piperidin-1-yl]ethanone]	3.63	3.62	3.63	–	–
c1cc2c(cc1-c1csc(N=C3CCCCN3)n1)OCO2 [compound 28, 4-(1,3-benzodioxol-5-yl)-N-[(2E/Z)-piperidin-2-ylidene]-1,3-thiazole-2-amine]	1.41	2.65	1.41	–	–
Clc1ncccc1-c1csc(N=C2CCCCN2)n1 [compound 53, 4-(2-chloropyridin-3-yl)-N-[(2E/Z)-piperidin-2-ylidene]-1,3-thiazole-2-amine]	–	–	0.71*	–	–
CC(=O)N1CCCCC1=Nc1nc(-c2ccc(F)c(Cl)c2)cs1 [compound 41, 1-[(2E/Z)-2-{[4-(3-chloro-4-fluorophenyl)-1,3-thiazol-2-yl]imino}piperidin-1-yl]ethanone]	3.88**; 3.88***; 3.88*	3.88**; 3.88***; 3.88*	3.88**; 3.88***; 3.88*	–	–
CCOc1ccccc1-c1csc(N=C2CCCCN2C(C)=O)n1 [compound 33, 1-[(2E/Z)-2-{[4-(2-ethoxyphenyl)-1,3-thiazol-2-yl]imino}piperidin-1-yl]ethanone]	2.71	5.03	2.71	–	–
Cc1sc(N=C2CCCCN2)nc1-c1ccc(Cl)cc1 [compound 31, 4-(4-chlorophenyl)-5-methyl-N-[(2E/Z)-piperidin-2-ylidene]-1,3-thiazole-2-amine]	1.84	3.72	1.84	–	–
Cc1cccc(-c2csc(N=C3CCCCN3)n2)c1 [compound 60, 4-(3-methylphenyl)-N-[(2E/Z)-piperidin-2-ylidene]-1,3-thiazole-2-amine]	–	–	1.32*	–	–
Clc1ccc(-c2ccccc2-c2csc(N=C3CCCCN3)n2)cc1Cl [compound 66, 4-(3′,4′-dichloro-biphenyl-2-yl)-N-[(2E/Z)-piperidin-2-ylidene]-1,3-thiazole-2-amine]	2.2**	–	–	–	–
c1sc(N=C2CCCCN2)nc1CC1CC1 [compound 72, 4-(cyclopropylmethyl)-N-[(2E/Z)-piperidin-2-ylidene]-1,3-thiazole-2-amine]	–	2.73	1.07	–	–
COc1ccc(-c2ccccc2-c2csc(N=C3CCCCN3)n2)cc1 [compound 67, 4-(4′-methoxybiphenyl-2-yl)-N-[(2E/Z)-piperidin-2-ylidene]-1,3-thiazole-2-amine]	1.83**	–	–	–	–
Clc1ccccc1-c1csc(N=C2CCCCN2)n1 [compound 20, 4-(2-chlorophenyl)-N-[(2E/Z)-piperidin-2-ylidene]-1,3-thiazole-2-amine]	1.63	3.19	1.63	–	–
Clc1ccc(-c2csc(N=C3CCCCN3)n2)cc1Cl [compound 52, 4-(3,4-dichlorophenyl)-N-[(2E/Z)-piperidin-2-ylidene]-1,3-thiazole-2-amine]	–	–	–	3.93	1.68
FC(F)(F)c1cccc(-c2csc(N=C3CCCCN3)n2)c1 [compound 45, N-[(2E/Z)-piperidin-2-ylidene]-4-[3-(trifluoromethyl)phenyl]-1,3-thiazole-2-amine]	1.97	3.55	–	–	–
Clc1cccc(-c2csc(N=C3CCCCN3)n2)c1Cl [compound 24, 4-(2,3-dichlorophenyl)-N-[(2E/Z)-piperidin-2-ylidene]-1,3-thiazole-2-amine]	1.81	3.72	1.81	–	–
FC(F)(F)c1cc(-c2csc(N=C3CCCCN3)n2)cc(C(F)(F)F)c1 [compound 6, 4-[3,5-bis(trifluoromethyl)phenyl]-N-[(2E/Z)-piperidin-2-ylidene]-1,3-thiazole-2-amine]	2.23	4.36	–	–	–
COc1cccc(-c2csc(N=C3CCCCN3)n2)c1 [compound 57, 4-(3-methoxyphenyl)-N-[(2E/Z)-piperidin-2-ylidene]-1,3-thiazole-2-amine]	–	2.76	1.19	–	–
Fc1ccc(-c2csc(N=C3CCCCN3)n2)cc1F [compound 18, 4-(3,4-difluorophenyl)-N-[(2E/Z)-piperidin-2-ylidene]-1,3-thiazole-2-amine]	1.64	3.12	1.64	–	–
CC(=O)N1CCCCC1=Nc1nc(-c2ccc3c(c2)OCO3)cs1 [compound 39, 1-[(2E/Z)-2-{[4-(1,3-benzodioxol-5-yl)-1,3-thiazol-2-yl]imino}piperidin-1-yl]ethanone]	2.96	2.95	2.96	–	–
COc1ccc(-c2cccc(-c3csc(N=C4CCCCN4)n3)c2)cc1 [compound 68, 4-(4′-methoxybiphenyl-3-yl)-N-[(2E/Z)-piperidin-2-ylidene]-1,3-thiazole-2-amine]	–	3.88	1.85	–	–
Cc1sc(N=C2CCCCN2)nc1-c1cccc(F)c1F [compound 44, 4-(2,3-difluorophenyl)-5-methyl-N-[(2E/Z)-piperidin-2-ylidene]-1,3-thiazole-2-amine]	1.7	3.2	1.7	–	–

Results, then the compound that gave them:

log P (**) (LC-MS, acidic range)	log P (***) [1]	log P (*) [2]	chromatographic logP (LC-MS, neutral range, pH 7.8, 0.001 molar aqueous ammonium bicarbonate and acetonitrile, read-out: log P (***))	chromatographic logP (acidic range, pH 2.3, 0.1% aqueous phosphoric acid and acetonitrile, read-out: log P (*))	SMILES
2.07	4.28	–	–	–	c1ccc(Cc2ccc(-c3csc(N=C4CCCCN4)n3)cc2)cc1 [compound 94, 4-(4-benzylphenyl)-N-[(2E/Z)-piperidin-2-ylidene]-1,3-thiazole-2-amine]
2.17	4.7	–	–	–	Clc1ccc(Cc2ccccc2-c2csc(N=C3CCCCN3)n2)cc1 [compound 93, 4-[2-(4-chlorobenzyl)-phenyl]-N-[(2E/Z)-piperidin-2-ylidene]-1,3-thiazole-2-amine]
–	3.96	2.02	–	–	Fc1cc(F)c(Oc2ccccc2-c2csc(N=C3CCCCN3)n2)c(F)c1 [compound 82, N-[(2E/Z)-piperidin-2-ylidene]-4-[2-(2,4,6-trifluorophenoxy)phenyl]-1,3-thiazole-2-amine]
–	4.17	2.01	–	–	Fc1ccc(Oc2ccccc2-c2csc(N=C3CCCCN3)n2)c(F)c1F [compound 77, N-[(2E/Z)-piperidin-2-ylidene]-4-[2-(2,3,4-trifluorophenoxy)phenyl]-1,3-thiazole-2-amine]
–	3.59	2.03	–	–	Fc1ccc(Oc2ccc(-c3csc(N=C4CCCN4)n3)cc2)c(F)c1 [compound 97, 4-[4-(2,4-difluorophenoxy)phenyl]-N-[(2E/Z)-pyrrolidin-2-ylidene]-1,3-thiazole-2-amine]
–	–	2.03*	–	–	Clc1ccc(Oc2ccccc2-c2csc(N=C3CCCCN3)n2)cc1 [compound 74, 4-[2-(4-chlorophenoxy)phenyl]-N-[(2E/Z)-piperidin-2-ylidene]-1,3-thiazole-2-amine]
–	–	1.87*	–	–	Fc1ccc(Oc2ccccc2-c2csc(N=C3CCCCN3)n2)cc1 [compound 75, 4-[2-(4-fluorophenoxy)phenyl]-N-[(2E/Z)-piperidin-2-ylidene]-1,3-thiazole-2-amine]
–	4.38	2.06	–	–	Brc1ccccc1Oc1ccccc1-c1csc(N=C2CCCCN2)n1 [compound 86, 4-[2-(2-bromophenoxy)phenyl]-N-[(2E/Z)-piperidin-2-ylidene]-1,3-thiazole-2-amine]
–	4.71	2.19	–	–	Brc1cccc(Oc2ccccc2-c2csc(N=C3CCCCN3)n2)c1 [compound 87, 4-[2-(3-bromophenoxy)phenyl]-N-[(2E/Z)-piperidin-2-ylidene]-1,3-thiazole-2-amine]
–	–	1.95*	–	–	Fc1cccc(Oc2ccccc2-c2csc(N=C3CCCCN3)n2)c1 [compound 83, 4-[2-(3-fluorophenoxy)phenyl]-N-[(2E/Z)-piperidin-2-ylidene]-1,3-thiazole-2-amine]
–	3.55	1.98	–	–	Fc1ccc(Oc2ccccc2-c2csc(N=C3CCCN3)n2)c(F)c1 [compound 102, 4-[2-(2,4-difluorophenoxy)phenyl]-N-[(2E/Z)-pyrrolidin-2-ylidene]-1,3-thiazole-2-amine]
2.43	5.35	–	–	–	Clc1cc(Cl)cc(Cc2ccccc2-c2csc(N=C3CCCCN3)n2)c1 [compound 89, 4-[2-(3,5-dichlorobenzyl)phenyl]-N-[(2E/Z)-piperidin-2-ylidene]-1,3-thiazole-2-amine]
1.57**	–	–	–	–	Clc1ccc(-c2csc(N=C3CCCN3)n2)cc1 [compound 96, 4-(4-chlorophenyl)-N-[(2E/Z)-pyrrolidin-2-ylidene]-1,3-thiazole-2-amine]
2.16	4.36	–	–	–	Clc1cccc(Cl)c1Cc1ccccc1-c1csc(N=C2CCCCN2)n1 [compound 91, 4-[2-(2,6-dichlorobenzyl)phenyl]-N-[(2E/Z)-piperidin-2-ylidene]-1,3-thiazole-2-amine]
1.76	3.92	1.76	–	–	Clc1ccc(-c2csc(N=C3CCCCN3)n2)c(Cl)c1 [compound 104, 4-(2,4-dichlorophenyl)-N-[(2E/Z)-piperidin-2-ylidene]-1,3-thiazole-2-amine]
–	4.18	1.83	–	–	Fc1ccc(Oc2ccccc2-c2csc(N=C3CCCCN3)n2)cc1F [compound 78, 4-[2-(3,4-difluorophenoxy)phenyl]-N-[(2E/Z)-piperidin-2-ylidene]-1,3-thiazole-2-amine]
1.95	4.19	–	–	–	Fc1ccc(Cc2ccccc2-c2csc(N=C3CCCCN3)n2)cc1 [compound 90, 4-[2-(4-fluorobenzyl)phenyl]-N-[(2E/Z)-piperidin-2-ylidene]-1,3-thiazole-2-amine]
